From PMC6208348 (Nature Communications, 2018)

Key:
[1] = biological target: T1, L. longbeachae LUSH SH2 domain (Legionella longbeachae, UniProt D3HPG5); format: binding
T1 construct: gene LLO_0448

L. longbeachae LeSH = biological target: T2, L. longbeachae LeSH (Legionella longbeachae, UniProt D3HJY4)
T2 construct: gene LLO_2327
T2 sequence (D3HJY4 1-167 limits assumed): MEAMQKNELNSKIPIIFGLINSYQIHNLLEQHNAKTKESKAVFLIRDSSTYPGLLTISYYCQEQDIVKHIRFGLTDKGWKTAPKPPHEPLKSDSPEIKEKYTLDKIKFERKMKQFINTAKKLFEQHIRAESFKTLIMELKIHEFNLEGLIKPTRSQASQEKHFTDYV

T1 sequence (D3HPG5 3-171 limits assumed): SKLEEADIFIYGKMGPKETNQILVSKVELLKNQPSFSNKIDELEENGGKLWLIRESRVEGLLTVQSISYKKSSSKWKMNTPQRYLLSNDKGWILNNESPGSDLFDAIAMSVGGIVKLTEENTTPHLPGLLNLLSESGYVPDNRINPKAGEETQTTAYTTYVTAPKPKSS

Structure (SMILES) | Kd [1] | X-ray crystal structure of complex (L. longbeachae LeSH)
N[C@@H](Cc1ccc(OP(=O)(O)O)cc1)C(=O)NCC(=O)O [pY-G dipeptide] | 810 nM | –
N[C@@H](Cc1ccc(OP(=O)(O)O)cc1)C(=O)O [phosphotyrosine] | – | crystal structures of LeSH in complex with three different pTyr ligands, including the phosphotyrosine itself
